Where two headings read alike, the source gives them in different places.
Tests used:
[1] = system: HepG2, HCT-8, Huh-7, Huh-7.5, TZM, PC3 and 293T cells; format: cell-based, human
SIV = SIV infectivity assay in TZM-bl cells (β-galactosidase); format: cell-based; settings: Simian immunodeficiency virus; for IC90: IC90 per footnote, read-out: IC50 (the source's name)
Lactobacillus crispatus = test: Lactobacillus toxicity testing (CFU); format: cell-based; settings: 37° C.
Method: (§1) Reference strains of L. crispatus and L. jensenii were obtained from the ATCC (Manassas, Va.) and cultured on Columbia blood agar plates at 35° C. in air enriched with 6% CO2. Bacterial suspensions were prepared in saline or ACES buffer to a density of 2 McFarland units (˜2×10^8 bacteria/mL), and exposed to PD (300 μM) or DMSO (10%) for 30 minutes at 37° C. After incubation, the cells were serially diluted in ACES buffer, pH 7.0 (Sigma-Aldrich, St. Louis, Mo.) and plated on blood agar plates to quantify colony forming unit per mL (CFU/mL)
(§2) Different bacterial strains were incubated with 300 μM PD or solvent DMSO-containing control media at 37° C. for 30 min and plated on blood agar plates to estimate their corresponding colony forming units per ml (CFU/ml). Less than 1 log difference between control and test CFU is considered non-toxic17.

Lactobacillus jensenii = test: Lactobacillus toxicity testing (CFU); format: cell-based; settings: 37° C.
Method: as §1, §2

HIV-1 (R5 JR-CSF) = test: Antiviral effect of PD before, during and after HIV-1 exposure (TZM-bl); format: cell-based
HCVcc [2] = format: cell-based, HCV
[3] = system: HIV-1 (X4 NL4.3) particles; settings: 10 μM PD, 30 min, 37° C.; 20-70% sucrose gradient
DC-associated HIV-1 = format: cell-based; settings: 10 μM PD added to DC 2 h after virus, pseudotyped NL4.3ΔEnv-eGFP/gp160 Env virus, Jurkat T cells, 3 days
HCVcc [4] = system: HCVcc; design: species or system HCV
VSV-Gpp = format: physicochemical; settings: pH 7
HSV-1 (Syn 17) = format: cell-based; settings: 2 μM and 0.2 μM PD
Method: (§3) FIGS. 16A-16B depict effectiveness of PD against HSV. PD blocks HSV infection. Vero cells were seeded in a 24-well plate and infected with HSV-1 (Syn 17) or HSV-2 (333) (FIG. 16A). PD (200 nM) or control DMSO (0.01%) was added immediately to the target cells after viral inoculation. Two days later, the cells were harvested, stained with antibody against HSV glycoprotein gD and analyzed by flow cytometry. Error bars represent standard deviation of triplicate samples. Results are representative of two independent experiments. PD Destabilizes HSV particles (FIG. 16B). Concentrated HSV (˜20 μg/mL) was incubated with DMSO (0.01%) or PD (200 nM) for 30 min at 37° C. and the mixture was immediately loaded over a 20-70% sucrose density gradient. The amount of HSV glycoprotein gpB in each fraction was analyzed by ELISA. The sucrose gradient density of each fraction was determined by measuring the refractive index. Results are representative of 2 independent experiments. Error bars represent the standard deviation of triplicate samples.
(§4) Vero cells (2×10^5 cells/well) were seeded in a 24 well plate. The next day, these cells were infected with increasing titers (MOI range 0.0001-1) of HSV-1 (Syn 17) or HSV-2 (333) in the presence of PD (2 μM and 200 nM) or control DMSO (0.01%) prepared in DMEM in the absence of serum. Two days post-inoculation, cells were harvested, fixed with 5% paraformaldehyde (PFA) in PBS, stained with antibodies against HSV glycoprotein gD (Novus biological, Littleton, Colo.) and analyzed by flow cytometry.
(§5) Applicants investigated the ability of PD to inactivate HSV-1 and -2. Vero cells were infected with HSV-1 and HSV-2 in the presence of PD (2 μM and 0.2 μM) or DMSO (0.01%). These concentrations were selected based on their closeness to the in vitro IC50 of PD against HIV-1. Infection was quantified by the cell surface expression of HSV gD. […] Similar results were obtained for both concentrations and the data from the lowest concentration is presented.

HSV-2 (333) = format: cell-based; settings: 2 μM and 0.2 μM PD
Method: as §3, §4, §5

[5] = system: freshly activated human PBMCs
[6] = SIVsyk1.2, PD in DMEM with 10% fetal bovine serum

Question: `N=C1Sc2ccccc2C2=NCCCN12` [PD, PD 404,182] was tested. Which CC50 ([1]; cervical cancer cells) did it give?
Answer: > 300 µM

Question: What about the CC50 ([1]; seven different human cell lines, including TZM-bl (HeLa)) of the same molecule?
Answer: > 300 µM

Question: What about the IC90 (SIV; SIVmoc251 32H, PD in DMEM with 10% fetal bovine serum) of the same molecule?
Answer: 6.2 µM

Question: And the IC50 (SIV; [6])?
Answer: 1.8 µM

Question: What about the IC90 (SIV; [6]) of the same molecule?
Answer: 5.4 µM

Question: And the “CFU of Lactobacillus treated with 300 μM PD” value (from here on “CFU of Lactobacillus treated”) (Lactobacillus crispatus; Lactobacillus crispatus ATCC 33197, 30 min)?
Answer: 7,260,000 CFU/ml

Question: And the “Log(Control)-Log(PD)” value (Lactobacillus crispatus; Lactobacillus crispatus ATCC 33197, 300 μM PD, 30 min)?
Answer: −0.019

Question: What about the “CFU of Lactobacillus treated” value (Lactobacillus jensenii; Lactobacillus jensenii ATCC 25258, 30 min) of the same molecule?
Answer: 7,533,333 CFU/ml

Question: What about the “CFU of Lactobacillus treated” value (Lactobacillus jensenii; Lactobacillus jensenii LBP 28Ab, 30 min) of the same molecule?
Answer: 10,033,333 CFU/ml

Question: What about the “Log(Control)-Log(PD)” value (Lactobacillus jensenii; Lactobacillus jensenii LBP 28Ab, 300 μM PD, 30 min) of the same molecule?
Answer: −0.021

Question: And the “effect on HIV-1 infection” value (HIV-1 (R5 JR-CSF); 10 μM PD added 1, 2, 4 and 8 h after virus inoculation)?
Answer: loses its antiviral effect

Question: And the “effect on HIV-1 infection” value (HIV-1 (R5 JR-CSF); 10 μM PD added to cells before the virus)?
Answer: retains its full potency up to 8 h before the addition of the virus

Question: And the “effect on HIV-1 infection” value (HIV-1 (R5 JR-CSF); 10 μM PD added together with the virus (time zero))?
Answer: significantly inhibits HIV-1 infection

Question: And the “effect on HIV-1 infection” value (HIV-1 (R5 JR-CSF); extended (>16 h) preincubation of PD with cells prior to virus inoculation)?
Answer: significantly reduces the compound's antiviral efficacy

Question: What about the “inhibition of virus infectivity” value (HCVcc [2]) of the same molecule?
Answer: > 10 fold

Question: What about the “sedimentation of HIV-1 capsid and RT in sucrose gradient” value [3] of the same molecule?
Answer: viral capsid and RT relocate to the top of the gradient

Question: What about the “DC to T cell transmission of HIV-1” value (DC-associated HIV-1) of the same molecule?
Answer: prevents subsequent T cell infection with the pseudotyped virus

Question: And the HCVcc virion lysis (HCVcc [4])?
Answer: Little to no virion lysis

Question: And the long-term stability (VSV-Gpp)?
Answer: not stable

Question: What about the “effect on HSV-1 infection” value (HSV-1 (Syn 17); MOI 1) of the same molecule?
Answer: partial protection

Question: And the “effect on HSV-1 infection” value (HSV-1 (Syn 17); MOI from 0.0001 to 0.1)?
Answer: inhibit both HSV-1 and HSV-2 infection

Question: And the “effect on HSV-2 infection” value (HSV-2 (333); MOI 1)?
Answer: partial protection

Question: What about the “effect on HSV-2 infection” value (HSV-2 (333); MOI from 0.0001 to 0.1) of the same molecule?
Answer: inhibit both HSV-1 and HSV-2 infection

Question: And the “reduction in cell viability” value [5]?
Answer: 48%

From US20140328795A1, “VIRUCIDAL SMALL MOLECULE AND USES THEREOF” (The Texas A&M University System, priority 2012, published 2014)
